From patent US20080027072A1, “Potentiation of MC4 receptor activity” (AMPLA Pharmaceuticals, Inc., priority 2006, published 2008)
pEC50: −log10 of the molar value.

Columns and labels:
[1] = tested on: diet-induced obese male C57BL/6J mice; experiment: 28-day body weight and food intake study in diet-induced obese mice; assay type: in vivo; conditions: day 29
Method: Sibutramine, which is currently used clinically, and rimonabant, which has recently received regulatory approval for the management of obesity were used as reference compounds.
C57BL/6J mice (7-8 weeks of age) were ordered from Charles River, Margate, Kent. Mice were group housed in polypropylene cages with free access to a high fat diet (D12451 45% of Kcal derived from fat; Research Diets, New Jersey, USA) and tap water at all times. Animals were maintained at 21±4° C. and 55±20% humidity on a normal phase 12 h light-dark cycle (lights on 04:30 h)
Animals were exposed to the high fat diet for 16 weeks. During this time body weight was recorded weekly. At the end of 14 weeks animals were singly housed in polypropylene cages for a further two week period (weeks 14-16) and placed on reverse phase lighting (lights off for 8 h from 9.30-17.30 h) during which time the room was illuminated by red light. Animals were dosed with vehicle orally throughout the baseline period. Body weight and food and water intake was recorded daily. Towards the end of the baseline period animals were allocated to groups. Upon completion of the baseline period, mice were dosed for 28 days with vehicle or test drug.
Body weight and food and water intake were recorded daily. Following drug administration the animals were examined and any overt behavior was recorded. For all dosing, the morning session was timed such that approximately half the mice were dosed at the time of lights out (09:30).
The test compounds were dissolved in 1% methylcellulose. Drug solutions were made up fresh each day 1-2 h before dosing and were administered using a dose volume in the range of 1-3 ml/kg. Drug doses were expressed as free base.
Resulting body weights, food intake and water intake were expressed as mean values±SEM, and the SEMs are calculated from residuals of the statistical model. Body weight data was analysed by ANCOVA with Day 1 as covariate followed by appropriate comparisons (two-tailed) to determine significant differences from the control group. […] Daily food and water intake data was analysed by ANOVA.

[2] = biological target: T1, human Melonocortin-4 (MC4) receptor (Homo sapiens, UniProt P32245); experiment: α-MSH dose-response, intracellular Ca2+ (Indo-1) flow cytometry (DSIS) in clonal MC4 cells, +/- compound; assay type: cell-based; conditions: compound at a concentration of 1-10 μM
T1 construct: expressed in transfected cells; host or cells: HEK293 (ATCC), G418-selected, FACS-sorted clonal cMC4 line
T1 sequence (P32245 whole entry): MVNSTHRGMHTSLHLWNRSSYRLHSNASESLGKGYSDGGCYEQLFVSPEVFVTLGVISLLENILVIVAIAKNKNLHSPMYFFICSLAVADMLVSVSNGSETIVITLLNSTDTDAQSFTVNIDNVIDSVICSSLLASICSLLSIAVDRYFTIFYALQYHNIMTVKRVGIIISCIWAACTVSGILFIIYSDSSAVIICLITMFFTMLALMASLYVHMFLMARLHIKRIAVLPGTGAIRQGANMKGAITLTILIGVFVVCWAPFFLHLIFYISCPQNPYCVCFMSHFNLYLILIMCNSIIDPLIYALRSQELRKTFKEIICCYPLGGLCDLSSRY
Method: The cMC4 and Control Cells were plated 24-48 hours in advance, and were harvested with trypsin at ˜80% confluency. Cells were then centrifuged and resuspended two times in Hybridoma Media, the final time at a concentration of 1×10^6 cells/mL. Both cell lines were then loaded with 2 mM of Indo-1 plus 3 μg/mL Biotin-X DHPE and then were incubated for 1 hour on a rotator at room temperature. Cells were washed two times and resuspended at a concentration of 1×10^6 cells/mL in Hybridoma Media. The cMC4 cell line then got 2 μg/ml of Alexa 488-streptavidin (Invitrogen/Molecular Probes). Cells were incubated for an additional 30 minutes on a rocker at room temperature. […]
The probe-loaded cMC4 and Control cell mixture was placed in the Cell Suspension System on the DSIS where they were continuously rocked to keep them in a suspended state. […] The DSIS software, NVS Sampler, recorded a timing file and the CyAn software, Summit, recorded a data file. These two files were then compiled and analyzed by NVS Analyzer (see below) to determine the percent of cells that responded to each concentration. The data were transferred to GraphPAD Prism (GraphPad Software, San Diego, Calif.) for a non-linear regression curve fit that determined the EC50. […]
When the screen was complete, the data files and the timing files were analyzed using NVS Analyzer. […]

MC4 receptor [3] = biological target: T2, MC4 receptor (Homo sapiens, UniProt P32245); experiment: ELISA-based cAMP assay in HEK293 cells stably expressing human MC4 receptors; assay type: cell-based; set-up: expressed in transfected cells; host or cells: HEK293 stably expressing human MC4 receptor
T2 sequence (P32245 whole entry): as above
Method: ELISA-based cAMP assay was used to determine ligand-induced cAMP accumulation in HEK293 cells stably expressing human MC4 receptors in 96-well plate format. Compounds and cAMP standards were diluted in DMEM (without FBS and phenol red) containing 1 mM IBMX. Cells were plated in T-75 flasks and cultured for 24 h before use. Cells were removed from tissue culture flasks using enzyme-free cell dissociation buffer, washed and resuspended in DMEM (without FBS and phenol red) containing 1 mM IBMX at a density of 1×10^6 cells/ml. […] After incubation for 1 h, 50 μl of lysis buffer (0.5% NP-40 in TBS) was added, and incubated for 30 min. After adding rabbit anti-cAMP antibody (Sigma) diluted in TBST (TBS containing 0.05% Tween 20) (25 μl/well) and incubating for 30 min, 25 μl of cAMP-HRP conjugate dilution (in TBST) was added, and incubated for another 1 h. The plate was washed 6 times with TBST. To each well 200 μl of substrate (SuperSignal ELISA Pico Chemiluminesent substrate, Pierce, #37070) was added. The chemiluminescence activity was measured by a luminescence plate reader (NOVAstar, BMG Labtech). cAMP amount for each sample was estimated from cAMP standard curve.

MC4 receptor [4] = biological target: T2, MC4 receptor; experiment: Competition ligand binding assay with [125I]-NDP-α-MSH, HEK293 cell membranes; set-up: expressed in transfected cells; host or cells: HEK293 stably expressing human MC4 receptor
Method: The binding was carried out at room temperature for another 2 h. […] Binding was terminated by addition of cold binding buffer and filtration on Whatman GF/B glass-fiber filters using a sampling manifold. The filters were washed 6 times with cold binding buffer and air-dried overnight. The radioactivity was quantified on a TopCounter after adding scintillation fluid. […] Data were analyzed by non-linear regression using program GraphPAD Prism (FIG. 5).

MC4 receptor [5] = biological target: T2, MC4 receptor; experiment: Binding experiments with the MC4 receptor inverse agonist AgRP (FIG. 6); set-up: expressed in transfected cells
MC4 receptor [6] = biological target: T2, MC4 receptor; experiment: Single-well kinetics of the αMSH response (FIGS. 9A-9E); assay type: cell-based; set-up: expressed in transfected cells
Method: FIGS. 9A-9E show response kinetics from single-well assays. The response was initiated by αMSH with or without Compound 1. […] Whereas at 1 μM and 300 nM, αMSH onset and peak were increased and sustained. The onset and peak response increased with 3 μM and 10 μM concentrations of Compound 1 at all concentrations of αMSH.

[7] = tested on: diet-induced obese male wild-type C57BL/6J mice; experiment: Food intake and body weight, diet-induced obese wild-type mice; assay type: in vivo; conditions: 40 mg/kg oral, day 2, wild-type
Method: (§1) Mice were dosed at 40 mg/kg for two days with vehicle or test drug. Body weight and food and water intake were recorded daily.
(§2) The test compound was ground while being diluted in 1% methylcellulose, and the final solution was sonicated to give a uniform suspension suitable for dosing. Drug solutions were made up fresh each day 1-2 h before dosing and were administered using a dose volume in the range of 1-3 ml/kg.

[8] = tested on: diet-induced obese male MC4 knockout C57BL/6J mice; experiment: Food intake and body weight, diet-induced obese MC4 knockout mice; assay type: in vivo; conditions: 40 mg/kg oral
Method: as §1, §2

Cc1c(C(=O)NN2CCCCC2)nn(-c2ccc(Cl)cc2Cl)c1-c1ccc(Cl)cc1 [Rimonabant]
reduction of body weight ([1]; 10 mg/kg oral): 15% | weight reduction as compared to vehicle, significance ([1]; 10 mg/kg oral): statistically significant weight reduction

Clc1ccc(N2CCN(Cc3c[nH]c4ncccc34)CC2)cc1 [Compound 2]
shift in the EC50 of α-MSH [2]: left shift | effect on the response of NDP-α-MSH (MC4 receptor [3]; cAMP accumulation): potentiate | pEC50 (MC4 receptor [4]): 3.60

OC1(c2ccc(Cl)cc2)CCN(Cc2c[nH]c3ccccc23)CC1 [Compound 1]
dissociation of AgRP from the MC4 receptor (MC4 receptor [5]): increases the dissociation | onset and peak response to αMSH (MC4 receptor [6]; 3 μM and 10 μM Compound 1, all concentrations of αMSH): increased | activity induced by the compound itself (MC4 receptor [6]; 10 μM Compound 1, 100 nM and 30 nM αMSH (FIG. 9E)): low level activity | maximum peak response to αMSH (MC4 receptor [6]; low concentrations of Compound 1): did not appreciably increase | shift in the EC50 of α-MSH [2]: left shift | effect on AgRP activity (MC4 receptor [3]; FIG. 8, cAMP): attenuates | effect on α-MSH activity (MC4 receptor [3]; FIG. 8, cAMP): potentiates | pEC50 (MC4 receptor [4]): 5.40 | body weight as compared to vehicle [7]: statistically significant decrease | reduction in food intake as compared to vehicle [7]: ~40% | body weight as compared to vehicle [8]: did not show a similar decrease | reduction in food intake as compared to vehicle [8]: did not show a similar reduction

CC(C)CC(N(C)C)C1(c2ccc(Cl)cc2)CCC1 (stereo not drawn) [Sibutramine]
reduction of body weight ([1]; 20 mg/kg oral): 2%
